Columns and labels:
BRG-1 = target: T1, BRG-1 (Homo sapiens, UniProt P51532); test: ATPase catalytic activity of BRG-1, ADP-Glo in vitro biochemical assay; conditions: ADP-Glo ATPase assay, 30 nM BRG-1, 400 μM ATP; read-out: BRG1 IC50
T1 construct: made in house; host or cells: High Five insect cells
In short: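 BRG-1 ATPase activity was measured by ADP-Glo. Unconsumed ATP was depleted for 40 min at room temperature, then ADP was converted to ATP for 60 min and read as luminescence.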

BRM = target: T2, BRM (Homo sapiens, UniProt P51531); test: ATPase catalytic activity of BRM, ADP-Glo in vitro biochemical assay; conditions: for IC50: ADP-Glo ATPase assay, 30 nM BRM, 400 μM ATP; for Ratio* (BRG1 IC50 (μM) divided by BRM IC50 (μM)): selectivity ratio BRG1 IC50 / BRM IC50
T2 construct: made in house; host or cells: High Five insect cells
T2 sequence (P51531 whole entry): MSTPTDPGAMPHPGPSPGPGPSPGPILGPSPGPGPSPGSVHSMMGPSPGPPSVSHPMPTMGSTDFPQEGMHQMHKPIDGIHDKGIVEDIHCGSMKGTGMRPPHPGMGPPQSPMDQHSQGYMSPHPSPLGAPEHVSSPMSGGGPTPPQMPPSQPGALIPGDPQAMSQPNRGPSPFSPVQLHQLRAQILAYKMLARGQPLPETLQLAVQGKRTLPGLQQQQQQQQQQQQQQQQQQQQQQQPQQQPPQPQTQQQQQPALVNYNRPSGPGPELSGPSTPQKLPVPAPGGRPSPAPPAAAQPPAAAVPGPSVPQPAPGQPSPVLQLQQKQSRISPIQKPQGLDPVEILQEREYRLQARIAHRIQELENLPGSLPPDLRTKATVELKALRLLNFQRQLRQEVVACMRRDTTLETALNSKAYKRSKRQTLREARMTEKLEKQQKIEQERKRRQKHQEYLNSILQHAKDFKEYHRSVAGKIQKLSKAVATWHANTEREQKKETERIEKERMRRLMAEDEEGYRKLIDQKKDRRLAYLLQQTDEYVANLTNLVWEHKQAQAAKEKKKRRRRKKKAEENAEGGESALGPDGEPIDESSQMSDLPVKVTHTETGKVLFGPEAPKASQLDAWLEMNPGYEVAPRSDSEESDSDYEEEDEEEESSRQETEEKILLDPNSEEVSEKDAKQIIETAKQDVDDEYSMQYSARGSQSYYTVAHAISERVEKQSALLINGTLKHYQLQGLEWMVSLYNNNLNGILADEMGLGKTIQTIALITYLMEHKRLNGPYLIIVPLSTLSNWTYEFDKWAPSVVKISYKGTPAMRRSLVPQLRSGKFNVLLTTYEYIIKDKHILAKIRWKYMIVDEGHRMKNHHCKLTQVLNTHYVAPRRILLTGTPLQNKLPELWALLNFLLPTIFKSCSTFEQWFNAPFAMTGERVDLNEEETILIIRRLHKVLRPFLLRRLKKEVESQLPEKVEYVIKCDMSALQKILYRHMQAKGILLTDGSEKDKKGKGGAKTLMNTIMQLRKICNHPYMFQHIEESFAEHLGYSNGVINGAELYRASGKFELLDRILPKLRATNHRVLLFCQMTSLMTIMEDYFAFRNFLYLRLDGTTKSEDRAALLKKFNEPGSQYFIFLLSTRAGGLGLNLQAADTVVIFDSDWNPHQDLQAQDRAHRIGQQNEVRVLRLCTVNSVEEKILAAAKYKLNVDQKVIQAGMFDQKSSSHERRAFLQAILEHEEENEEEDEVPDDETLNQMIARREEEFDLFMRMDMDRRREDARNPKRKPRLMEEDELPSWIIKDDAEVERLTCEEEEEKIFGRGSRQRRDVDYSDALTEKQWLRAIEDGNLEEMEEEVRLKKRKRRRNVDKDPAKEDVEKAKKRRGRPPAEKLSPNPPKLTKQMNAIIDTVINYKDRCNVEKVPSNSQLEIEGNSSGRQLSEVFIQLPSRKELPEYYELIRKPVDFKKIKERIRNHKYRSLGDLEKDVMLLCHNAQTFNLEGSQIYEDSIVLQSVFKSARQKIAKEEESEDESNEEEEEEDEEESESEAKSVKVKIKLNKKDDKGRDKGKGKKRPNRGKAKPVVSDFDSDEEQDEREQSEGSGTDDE
In short: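 Recombinant BRM (30 nM) hydrolysed 400 μM ATP with 20 nM salmon sperm DNA in pH 8 Tris buffer containing 20 mM MgCl2, 50 mM NaCl, 0.1% Tween-20 and 1 mM DTT, 1 h at room temperature. ADP formed was quantified by ADP-Glo luminescence.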

T1 sequence (P51532 whole entry): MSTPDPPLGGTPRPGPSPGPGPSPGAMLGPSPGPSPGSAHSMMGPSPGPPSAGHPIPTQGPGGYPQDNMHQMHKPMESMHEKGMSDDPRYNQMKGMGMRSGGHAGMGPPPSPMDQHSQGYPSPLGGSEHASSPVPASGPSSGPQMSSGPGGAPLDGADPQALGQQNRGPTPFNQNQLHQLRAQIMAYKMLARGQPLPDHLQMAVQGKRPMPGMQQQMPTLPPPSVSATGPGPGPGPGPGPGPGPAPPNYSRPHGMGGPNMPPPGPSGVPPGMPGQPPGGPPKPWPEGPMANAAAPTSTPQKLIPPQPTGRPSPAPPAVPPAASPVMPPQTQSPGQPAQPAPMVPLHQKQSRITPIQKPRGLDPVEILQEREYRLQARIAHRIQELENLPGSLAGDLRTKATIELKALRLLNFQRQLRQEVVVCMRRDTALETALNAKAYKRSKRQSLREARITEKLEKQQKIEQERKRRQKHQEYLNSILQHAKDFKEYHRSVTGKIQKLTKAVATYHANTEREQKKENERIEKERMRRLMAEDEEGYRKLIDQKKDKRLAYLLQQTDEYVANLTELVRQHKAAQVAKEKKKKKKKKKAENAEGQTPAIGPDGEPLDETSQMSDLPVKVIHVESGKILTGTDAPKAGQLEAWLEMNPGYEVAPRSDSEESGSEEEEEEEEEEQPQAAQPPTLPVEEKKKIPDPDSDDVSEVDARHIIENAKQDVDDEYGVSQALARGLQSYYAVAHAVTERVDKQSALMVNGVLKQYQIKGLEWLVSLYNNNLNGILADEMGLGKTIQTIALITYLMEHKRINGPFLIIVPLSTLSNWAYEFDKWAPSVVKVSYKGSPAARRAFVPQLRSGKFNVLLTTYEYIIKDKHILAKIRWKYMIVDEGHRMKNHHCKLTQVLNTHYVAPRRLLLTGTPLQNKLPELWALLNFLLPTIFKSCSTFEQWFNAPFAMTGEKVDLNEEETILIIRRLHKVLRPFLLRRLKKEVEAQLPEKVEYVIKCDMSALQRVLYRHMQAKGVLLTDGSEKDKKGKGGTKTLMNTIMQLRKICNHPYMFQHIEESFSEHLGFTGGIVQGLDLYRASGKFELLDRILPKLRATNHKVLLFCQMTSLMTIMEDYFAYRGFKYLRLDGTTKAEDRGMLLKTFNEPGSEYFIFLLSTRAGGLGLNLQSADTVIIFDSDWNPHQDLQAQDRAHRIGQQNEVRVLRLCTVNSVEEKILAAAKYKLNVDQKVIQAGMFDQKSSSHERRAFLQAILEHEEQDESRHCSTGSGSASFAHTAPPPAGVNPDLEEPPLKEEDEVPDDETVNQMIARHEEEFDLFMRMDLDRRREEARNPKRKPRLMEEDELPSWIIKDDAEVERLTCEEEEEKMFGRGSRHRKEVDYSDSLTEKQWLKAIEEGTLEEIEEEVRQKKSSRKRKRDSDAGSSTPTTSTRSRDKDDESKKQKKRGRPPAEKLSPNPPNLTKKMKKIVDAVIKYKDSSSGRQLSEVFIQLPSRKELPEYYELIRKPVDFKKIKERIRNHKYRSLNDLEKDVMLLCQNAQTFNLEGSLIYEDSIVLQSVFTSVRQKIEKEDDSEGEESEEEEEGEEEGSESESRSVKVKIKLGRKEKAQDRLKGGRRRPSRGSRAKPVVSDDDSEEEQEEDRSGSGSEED

Row | IC50 (BRG-1) [nM] | IC50 (BRM) [nM] | Ratio* (BRG1 IC50 (μM) divided by BRM IC50 (μM)) (BRM) | SMILES
1 | 233 | 16.5 | 14.10 | COc1nn(C2COC2)cc1-c1ccc2cnc(CNC(=O)c3ccc4c(c3)S(=O)(=O)CCOC4)cc2c1 [Compound 261]
2 | 2620 | 466 | 5.63 | CC(C)(F)c1cncc(-c2ccc3cnc(CNC(=O)c4ccc5c(c4)S(=O)(=O)CCOC5)cc3n2)n1 [Compound 262]
3 | 348 | 23.3 | 14.94 | O=C(NCc1cc2cc(-c3cncc(C4CC4)n3)ccc2cn1)c1ccc2c(c1)S(=O)(=O)CCOC2 [Compound 263]
4 | 590 | 23.5 | 25.10 | O=C(NCc1cc2nc(-c3cccc(C4CC4)n3)ccc2cn1)c1ccc2c(c1)S(=O)(=O)CCOC2 [Compound 264]
5 | 2400 | 167 | 14.36 | COc1cccc(-c2ccc3cnc(CNC(=O)c4ccc5c(c4)S(=O)(=O)CCOC5)cc3n2)c1 [Compound 265]
6 | 5000 | 819 | 6.11 | CS(=O)(=O)c1cc(C(=O)NCc2cc3nc(-c4cncc(C5CC5)n4)ccc3cn2)ccc1C1CC1 [Compound 266]
7 | 1090 | 35.2 | 30.99 | O=C(NCc1cc2nc(-c3cccc([C@H]4CC4(F)F)n3)ccc2cn1)c1ccc2c(c1)S(=O)(=O)CCOC2 [Compound 267]
8 | 343 | 16.3 | 21.00 | O=C(NCc1cc2cc(-c3cccc(N4CCC4)n3)ccc2cn1)c1cc(F)c2c(c1)S(=O)(=O)CCOC2 [Compound 268]
9 | 5000 | 200 | 25.03 | Cc1c(Cl)cc(C(=O)NCc2cc3nc(-c4cncc(C5CC5)n4)ccc3cn2)cc1S(C)(=O)=O [Compound 269]
10 | 1570 | 127 | 12.44 | O=C(NCc1cc2nc(-c3cccc([C@@H]4CC4(F)F)n3)ccc2cn1)c1ccc2c(c1)S(=O)(=O)CCOC2 [Compound 270]
11 | 204 | 16.1 | 12.70 | O=C(NCc1cc2cc(-c3cccc(N4CCC4)n3)ccc2cn1)c1ccc2c(c1)S(=O)(=O)CCOC2 [Compound 271]
12 | 4230 | 245 | 17.28 | CS(=O)(=O)c1cc(C(=O)NCc2cc3nc(-c4cncc(C5CC5)n4)ccc3cn2)cc(F)c1Cl [Compound 272]
13 | 2800 | 119 | 23.47 | COCc1ccc(C(=O)NCc2cc3nc(-c4cncc(C5CC5)n4)ccc3cn2)cc1S(C)(=O)=O [Compound 273]
14 | 589 | 69.6 | 8.46 | CNc1cccc(-c2ccc3cnc(CNC(=O)c4ccc5c(c4)S(=O)(=O)CCOC5)cc3n2)n1 [Compound 274]
15 | 1320 | 84.9 | 15.55 | CCS(=O)(=O)c1cc(C(=O)NCc2cc3nc(-c4cncc(C5CC5)n4)ccc3cn2)ccc1C [Compound 275]
16 | 5360 | 615 | 8.72 | CS(=O)(=O)c1cc(C(=O)NCc2cc3nc(-c4cncc(C5CC5)n4)ccc3cn2)cnc1C(F)F [Compound 277]
17 | 1910 | 73.8 | 25.91 | O=C(NCc1cc2nc(-c3cccc(OC(F)F)c3)ccc2cn1)c1ccc2c(c1)S(=O)(=O)CCOC2 [Compound 278]
18 | 5000 | 529 | 9.45 | Cc1ccc(C(=O)NCc2cc3nc(-c4cncc(C5CC5)n4)ccc3cn2)cc1S(=O)(=O)C(C)C [Compound 279]

Row | SMILES | IC50 (BRG-1) [nM] | IC50 (BRM) [nM] | Ratio* (BRG1 IC50 (μM) divided by BRM IC50 (μM)) (BRM)
19 | O=C(NCc1cc2nc(-c3cccc(N4CC5CC(C4)O5)n3)ccc2cn1)c1ccc2c(c1)S(=O)(=O)CCOC2 [Compound 276] | 584 | 81.8 | 7.14

Source: patent publication US20230416248A1, “COMPOUNDS AND USES THEREOF” (Foghorn Therapeutics Inc., priority 2020, published 2023)
